Experimental findings from patent US20230348459A1, “PYRROLIDINE COMPOUND AND USE THEREOF” (SIMCERE PHARMACEUTICAL CO., LTD., priority 2020, published 2023) are described below.

≈ marks a conversion by molar mass, not a printed value.

Series [1] in a line: Plasma protein binding rate, equilibrium dialysis, dog plasma. The format is in vitro ADME. Conditions: pH 7.4, Beagle dog plasma, 6 hours dialysis. Here is the method: (§1) The protein binding rate of the compounds of the present invention in the plasma of five species (human, monkey, dog, rat and mouse) was determined by the following test method.
(§2) • 1. Human plasma (BioIVT), beagle dog plasma (BioIVT), SD rat plasma (BioIVT), CD-1 mouse plasma (BioIVT); • 2. 96-well equilibrium dialysis plate (HTDialysis LLC, Gales Ferry, CT, HTD96B), equilibrium dialysis membrane (MWCO 12-14 K, #1101); • 3. Positive control compound warfarin; • 4. ABI QTrap 5500 liquid chromatography-mass spectrometry.
(§3) 1. Preparation of a buffer with a concentration of 100 mM sodium phosphate and 150 mM NaCl: an alkaline solution with a concentration of 14.2 g/L Na2HPO4 and 8.77 g/L NaCl was prepared with ultrapure water, and an acidic solution with a concentration of 12.0 g/L NaH2PO4 and 8.77 g/L NaCl was prepared with ultrapure water. The alkaline solution was titrated with the acidic solution to pH 7.4 to prepare a buffer with a concentration of 100 mM sodium phosphate and 150 mM NaCl.
(§4) 2. Preparation of dialysis membrane: the dialysis membrane was soaked in ultrapure water for 60 minutes to separate the membrane into two pieces, then soaked in 20% ethanol for 20 minutes, and finally soaked in the buffer used for dialysis for 20 minutes.
(§5) 3. Preparation of plasma: the frozen plasma was quickly thawed at room temperature, then the plasma was centrifuged at 3,220 g at 4° C. for 10 min to remove clots, and the supernatant was collected into a new centrifuge tube. The pH of the plasma was measured and recorded, and the plasma with pH of 7-8 was used.
(§6) 3. Preparation of compound-containing plasma samples: 10 mM stock solution of compounds of the present invention or positive control compounds were diluted with DMSO to obtain 200 µM working solution. […]
(§7) The peak areas of the compounds on the buffer side and the plasma side were determined. […]
(§8) All the data was calculated by the Microsoft Excel software. The plasma protein binding rate values of the compounds of the present invention were calculated.
In general terms: Equilibrium dialysis compares concentrations on both sides of a semipermeable membrane.

A short description of series [2]: Plasma protein binding rate, equilibrium dialysis, mouse plasma. The settings on record: pH 7.4, CD-1 mouse plasma, 6 hours dialysis. Type of series: in vitro ADME. Here is the method: as §1, §2, §3, §4, §5, §6, §7, §8
Series [3] in a line: Apparent solubility in phosphate buffer at pH 7.4. Type of series: physicochemical. The settings on record: aqueous buffer, kinetic from dmso stock, phosphate buffer pH 7.4, 25° C. Here is the method:
The compounds to be tested were prepared according to the method described. The control drug progesterone was purchased from Sigma. Phosphate buffer with pH 7.4 was prepared in our laboratory. Acetonitrile and methanol were purchased from Fisher. Other reagents were purchased from the market.
10 mM stock solution of substance to be tested and control drug progesterone was prepared with DMSO.
30 µL of 10 mM stock solution of substance to be tested was taken, and added to the corresponding position of the corresponding 96-well plate in the specified order. 970 µL of phosphate buffer (pH 7.4) was added to the corresponding vial in the sample plate. The experiment was performed in parallel duplicate. A stirring rod was added to each vial and a polytetrafluoroethylene/silicone stopper was covered thereon. The sample tray was then placed in an Eppendorf Thermomixer Comfort and shaken at 1100 rpm for 2 hours at 25° C. After 2 hours, the stopper was removed, and the stirring rod was sucked away by a large magnet, then the sample was transferred from the sample plate to the filter plate. A vacuum pump was used to generate negative pressure and the sample was filtered. 5 µL of the filtrate was transferred to a new sample plate, and then 5 µL of DMSO and 490 µL of 50% ACN(IS).H2O (internal standard acetonitrile : water = 1 : 1) were added. Depending on the peak shape, it may be possible to dilute the sample diluent with a certain proportion of 50% ACN(IS).H2O for better peak shape. […]
The loading plate was placed in the loading tray of the autosampler, and the sample was evaluated by liquid chromatography-mass spectrometry analysis.
All calculations are performed via Microsoft Excel. Analysis and quantification of the sample filtrate was accomplished by using the liquid chromatography-mass spectrometry to characterize and quantify the peaks of the standards with known concentrations. The apparent solubility of the compounds of the present invention in phosphate buffer (PH 7.4) was calculated.

In general, fraction unbound refers to free concentration divided by total concentration. For orientation: solubility means the concentration that dissolves in the medium under given conditions. In the case of `C[C@@H]1Cc2c([nH]c3ccccc23)C(c2c(F)cc(N[C@H]3CCN(CCCF)C3)cc2F)N1CC(F)(F)F` (stereo in doubt) [Example 4, (S)-N-(3,5-difluoro-4-((1S,3R)-3-methyl-2-(2,2,2-trifluoroethyl)-2,3,4,9-tetrahydro-1H-pyridino[3,4-b]indol-1-yl)phenyl)-1-(3-fluoropropyl)pyrrolidin-3-amine], the unbound share (fraction unbound) at 6 h, 1 µM in series [1] and in series [2] was 0.002 throughout. In series [3], the solubility at 2 h was less than 0.3 µM.
Consider `C[C@@H]1Cc2c([nH]c3ccccc23)C(c2c(F)cc(N[C@H]3CCN(CCCF)C3)cc2F)N1CC(F)(F)CO` (stereo in doubt) [Example 7, 3-((1S,3R)-1-(2,6-difluoro-4-(((S)-1-(3-fluoropropyl)pyrrolidin-3-yl)amino)phenyl)-3-methyl-3,4-dihydro-1H-pyridino [3,4-b]indole-2(9H)-yl)-2,2-difluoropropane-1-ol], for which the unbound share (fraction unbound) at 6 h, 1 µM in series [1] and in series [2] was 0.012 throughout. Moreover, the solubility at 2 h in series [3] came out at 4 µM (≈ 2.15 µg/mL).
On to `C[C@@H]1Cc2c([nH]c3ccccc23)[C@@H](c2ccc(N[C@H]3CCN(CCCF)C3)cn2)N1CC(F)(F)F` [Example 3, N-((S)-1-(3-fluoropropyl)pyrrolidin-3-yl)-6-((1S,3R)-3-methyl-2-(2,2,2-trifluoroethyl)-2,3,4,9-tetrahydro-1H-pyridino[3,4-b]indol-1-yl)pyridine-3-amine], for which the unbound share (fraction unbound) at 6 h, 1 µM is 0.013 in series [1] and 0.019 in series [2]. For the same compound, in series [3], the solubility at 2 h worked out at 92 µM (≈ 45 µg/mL).
